Among the test systems are SK-MEL-2; MOLT-4; ACHN; M14; OVCAR-4; UACC-257; RXF 393; NCI-H23; HOP-92; RPMI-8226; UACC-62; NCI-H522; OVCAR-8; SW-620; LOX IMVI; COLO 205; HL-60; NCI/ADR-RES; T47D.
Assay in all cases: NCI tumour cell line growth inhibition, 48 h

SMILES strings stand for the structures.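 Dose response: 5 concentrations. Exposure: 48 h. Format: 96-well plates. Endpoint: linear interpolation; highest concentration if not reached. At the GI50, growth is halved.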 The source made the active and inactive calls. Cut-off read from the data, not from the text of the source: active = GI50 up to about 1.1 µM and inactive = higher.

In the case of `CCOC(=O)CCC(NC(=O)c1ccc(/N=C/c2nc3cc(C(F)(F)F)ccc3nc2-c2ccccc2)cc1)C(=O)OCC` (stereo not drawn), the GI50 in the assay with SK-MEL-2 was 11.3 µM (inactive); in the assay on MOLT-4, > 50 µM (inactive); in the assay on ACHN it was 11.1 µM (inactive); in the assay with M14, 23.9 µM (inactive); with OVCAR-4 it was 11.5 µM (inactive); with UACC-257 it was > 50 µM (inactive). Further, the GI50 in the assay with RXF 393 is 7.14 µM (inactive); with NCI-H23 it was 7.82 µM (inactive); in the assay on HOP-92, 4.88 µM (inactive); in the assay with RPMI-8226 it was > 50 µM (inactive); in the assay with UACC-62, 12.2 µM (inactive); with NCI-H522, 12.3 µM (inactive). For the same molecule, the GI50 with OVCAR-8 was 7.33 µM (inactive); in the assay on SW-620, > 50 µM (inactive); in the assay with LOX IMVI it was 14.4 µM (inactive); in the assay with COLO 205, 25.5 µM (inactive); in the assay with HL-60, 8.91 µM (inactive).
Take `COC(=O)C1C(=O)N(CCc2c[nH]c3ccccc23)C[C@@H]2CCC(=O)C[C@H]12` (stereo partly drawn): the GI50 in the assay on SK-MEL-2, in the assay with MOLT-4, in the assay on M14, in the assay on OVCAR-4, in the assay with UACC-257 and in the assay on RXF 393 was > 100 µM (inactive) each time. Also, the GI50 in the assay with NCI-H23, with HOP-92, with RPMI-8226, in the assay on UACC-62, with NCI-H522 and in the assay on OVCAR-8 was > 100 µM (inactive) each time. The GI50 with SW-620, with LOX IMVI, with COLO 205 and in the assay on HL-60 was > 100 µM (inactive) each time.
With `Cc1cc(O)nc(NN2C(Cl)C(=O)C2c2ccccc2O)n1` (stereo not drawn), the GI50 is 1.61 µM (inactive) with SK-MEL-2; 0.585 µM (active) with MOLT-4; 1.44 µM (inactive) in the assay on ACHN; 3.15 µM (inactive) with M14; 1.54 µM (inactive) with NCI/ADR-RES; 8.49 µM (inactive) in the assay with OVCAR-4. In addition, the GI50 was 3.4 µM (inactive) with UACC-257; 3.03 µM (inactive) with RXF 393; 5.45 µM (inactive) in the assay on NCI-H23; 5.26 µM (inactive) in the assay with HOP-92; 3.06 µM (inactive) in the assay on RPMI-8226; 3.99 µM (inactive) with T47D. The GI50 with UACC-62 was 1.6 µM (inactive); with OVCAR-8, 2.66 µM (inactive); in the assay with SW-620, 3.27 µM (inactive); with LOX IMVI it was 1.02 µM (active); with COLO 205 it was 12.1 µM (inactive); in the assay with HL-60, 0.689 µM (active).
`C/C(=N\Nc1ccc([N+](=O)[O-])cc1)C(=O)N(C)Nc1ccccc1`: the GI50 was 29.1 µM (inactive) in the assay with SK-MEL-2; 41 µM (inactive) in the assay with MOLT-4; 35.4 µM (inactive) in the assay with ACHN; 43.2 µM (inactive) with M14; 47.2 µM (inactive) in the assay on OVCAR-4; 31.6 µM (inactive) in the assay with UACC-257. Also, the GI50 is 58.1 µM (inactive) in the assay on RXF 393; 58.5 µM (inactive) with NCI-H23; 53.7 µM (inactive) in the assay with HOP-92; 76 µM (inactive) in the assay with RPMI-8226; 45.2 µM (inactive) in the assay on UACC-62; 52.8 µM (inactive) in the assay with NCI-H522. For the same molecule, the GI50 in the assay with OVCAR-8 was 51.4 µM (inactive); with SW-620, > 100 µM (inactive); in the assay with LOX IMVI it was 64.4 µM (inactive); in the assay on COLO 205 it was 58.3 µM (inactive); with HL-60 it was 65.3 µM (inactive).
In the case of `C[C@]12CCC(O)CC1=CC[C@@H]1[C@@H]2CC[C@]2(C)C(=O)[C@H](n3ccnc3)C[C@@H]12` (stereo partly drawn), the GI50 with SK-MEL-2 was 27 µM (inactive); in the assay on MOLT-4, 17.9 µM (inactive); in the assay on ACHN, > 100 µM (inactive); in the assay on M14 it was 77.6 µM (inactive); in the assay with NCI/ADR-RES it was 39.8 µM (inactive); in the assay with OVCAR-4, 89.1 µM (inactive). Besides, the GI50 with UACC-257 was 40.4 µM (inactive); in the assay on RXF 393, > 100 µM (inactive); with NCI-H23, 33.8 µM (inactive); with HOP-92, > 100 µM (inactive); with RPMI-8226, 21.2 µM (inactive); in the assay on UACC-62, 47.5 µM (inactive). For the same molecule, the GI50 in the assay with NCI-H522 was 33.5 µM (inactive); with OVCAR-8, 37.4 µM (inactive); in the assay on SW-620 it was > 100 µM (inactive); in the assay on LOX IMVI, 44.5 µM (inactive); in the assay on COLO 205 it was 28.7 µM (inactive); in the assay with HL-60, 11.6 µM (inactive).
In the case of `N#CC(C(=O)CCC(=O)C(C#N)c1ccccc1)c1ccccc1` (stereo not drawn), the GI50 in the assay on SK-MEL-2, with MOLT-4, with ACHN, in the assay on M14, in the assay on OVCAR-4 and with UACC-257 was > 100 µM (inactive) throughout. For the same molecule, the GI50 in the assay on RXF 393, with NCI-H23, in the assay with HOP-92, in the assay on RPMI-8226, in the assay with UACC-62 and in the assay on NCI-H522 was > 100 µM (inactive) each time. Also, the GI50 in the assay with OVCAR-8, in the assay with SW-620, in the assay with LOX IMVI, in the assay with COLO 205 and in the assay with HL-60 was > 100 µM (inactive) each time.
Take `Cc1cccc(C)c1NC(=O)CCC(=O)NNc1nnc(C)n1N`: the GI50 in the assay with SK-MEL-2, with MOLT-4, in the assay with ACHN, in the assay with M14, in the assay on OVCAR-4 and in the assay with UACC-257 was > 100 µM (inactive) throughout. For the same molecule, the GI50 in the assay with RXF 393, in the assay on NCI-H23, in the assay on HOP-92, with RPMI-8226, with UACC-62 and in the assay with NCI-H522 was > 100 µM (inactive) each time. Moreover, the GI50 in the assay on OVCAR-8, in the assay with SW-620, in the assay with LOX IMVI, in the assay on COLO 205 and in the assay on HL-60 was > 100 µM (inactive) in each case.
In the case of `NC(=S)N/N=C1\CCCC\C1=C/c1ccccc1`, the GI50 in the assay with SK-MEL-2 was 73.3 µM (inactive); with MOLT-4, 19.6 µM (inactive); in the assay on ACHN, > 100 µM (inactive); in the assay on M14 it was 91 µM (inactive); in the assay on OVCAR-4 it was 27 µM (inactive); in the assay on UACC-257, 17.9 µM (inactive). Moreover, the GI50 in the assay with RXF 393 was 23.8 µM (inactive); in the assay on NCI-H23, > 100 µM (inactive); in the assay on HOP-92 it was 47.2 µM (inactive); in the assay with RPMI-8226, 15 µM (inactive); in the assay with UACC-62 it was 57.7 µM (inactive); in the assay with NCI-H522 it was 18.7 µM (inactive). In addition, the GI50 in the assay on OVCAR-8 was > 100 µM (inactive); in the assay with SW-620 it was 72.6 µM (inactive); in the assay with LOX IMVI, > 100 µM (inactive); in the assay on COLO 205 it was 65.6 µM (inactive); in the assay with HL-60, 1.88 µM (inactive).
As for `CCOc1ccccc1NC(=O)C(=O)CC(=O)c1c(C)[n+]([O-])c2ccccc2[n+]1[O-]`, the GI50 in the assay with SK-MEL-2, in the assay with MOLT-4, in the assay with ACHN, with M14, with OVCAR-4 and in the assay on UACC-257 was > 100 µM (inactive) each time. The GI50 in the assay on RXF 393 was > 100 µM (inactive); in the assay on NCI-H23, 65 µM (inactive); in the assay on HOP-92, > 100 µM (inactive); with RPMI-8226, > 100 µM (inactive); in the assay with UACC-62, > 100 µM (inactive); in the assay on NCI-H522, 84.5 µM (inactive). Besides, the GI50 is > 100 µM (inactive) in the assay with OVCAR-8; > 100 µM (inactive) with SW-620; 99.3 µM (inactive) in the assay on LOX IMVI; 35.2 µM (inactive) in the assay with COLO 205; > 100 µM (inactive) in the assay on HL-60.
Take `NC(=O)c1c2c(cc3c(=O)c4ccccc4[nH]c13)CCCC2`: the GI50 with SK-MEL-2 is > 65.9 µM (inactive); in the assay with MOLT-4, > 61.2 µM (inactive); with ACHN, > 100 µM (inactive); in the assay on M14, > 100 µM (inactive); in the assay on OVCAR-4, > 100 µM (inactive); with UACC-257 it was > 100 µM (inactive). Moreover, the GI50 in the assay on RXF 393 was > 100 µM (inactive); in the assay with NCI-H23, > 93.3 µM (inactive); with HOP-92, > 100 µM (inactive); in the assay on RPMI-8226, > 46.8 µM (inactive); in the assay with UACC-62, > 100 µM (inactive); with NCI-H522 it was > 100 µM (inactive). The GI50 in the assay on OVCAR-8 was > 97.3 µM (inactive); in the assay on SW-620, > 100 µM (inactive); in the assay with LOX IMVI it was > 100 µM (inactive); in the assay on COLO 205 it was > 100 µM (inactive); in the assay with HL-60, > 100 µM (inactive).
With `COc1ccc(/N=N/c2ccc3oc(=O)c(C(=O)Nc4ccccc4C)cc3c2)cc1`, the GI50 in the assay with SK-MEL-2 is > 10 µM (inactive); in the assay on MOLT-4, > 10 µM (inactive); in the assay with ACHN it was 8.3 µM (inactive); with M14, > 10 µM (inactive); in the assay with NCI/ADR-RES it was > 10 µM (inactive); in the assay with OVCAR-4, > 10 µM (inactive). Besides, the GI50 in the assay with UACC-257, in the assay on RXF 393, in the assay on NCI-H23, in the assay with HOP-92, in the assay on RPMI-8226 and with T47D was > 10 µM (inactive) in each case. For the same molecule, the GI50 in the assay on NCI-H522, with OVCAR-8, in the assay on SW-620, in the assay with LOX IMVI and in the assay with COLO 205 was > 10 µM (inactive) throughout.

The values above are taken from ChEMBL document CHEMBL1201862, “PubChem BioAssay data set” (2004).
